# Assay results reported in patent publication US8987170B2, “Succinimide compound” (Sumitomo Chemical Company, Limited, priority 2013, dated 2015).
# Legend:
# Type in all cases: cell-based
# Pythium zingiberis [1] = assay: Antibacterial test on Pythium zingiberis (Test Example 1), mycelium growth on PDA medium; settings: 500 ppm in PDA medium
# Method: A predetermined amount of Compound (1) was dissolved in dimethyl sulfoxide, and the resulting solution was added to a potato dextrose agar medium (PDA medium) so as to have a final concentration of 500 ppm. Separately, an agar piece containing bacteria cut out from the bacterial flora peripheral part of Pythium zingiberis pre-cultured in an additive-free PDA medium was inoculated on the PDA medium containing Compound (1), and cultured at 12° C. or 27° C., and then the mycelium growth inhibition rate was measured by the following Expression 1: Mycelium growth inhibition rate(%)=100−(Diameter of bacterial flora in added medium)/(Diameter of bacterial flora in additive-free medium)×100 Expression 1
# Pythium zingiberis [2] = assay: Antibacterial test on Pythium zingiberis (Test Example 2), comparison with comparative compound; settings: 96 h, 500 ppm in PDA medium, cultured at 27° C. for 4 days, read-out: Mycelium growth inhibition rate (%)
# Method: A predetermined amount of Compound (1) was dissolved in dimethyl sulfoxide, and the resulting solution was added to a potato dextrose agar medium (PDA medium) so as to have a final concentration of 500 ppm. Separately, an agar piece containing bacteria cut out from the bacterial flora peripheral part of Pythium zingiberis pre-cultured in an additive-free PDA medium was inoculated on the PDA medium containing Compound (1), and cultured at 27° C. for 4 days, and then the mycelium growth inhibition rate was measured by Expression 1. In addition, the test was conducted in the same manner, using N-[7-fluoro-3,4-dihydro-3-oxo-4-(2-propynyl)-2H-1,4-benzoxazin-6-yl]cyclohex-1-ene-1,2-dicarboxamide as a comparative example, in place of Compound (1).
# Pythium debaryanum = assay: Antibacterial test on Pythium debaryanum, mycelium growth state on PDA medium; settings: predetermined concentration in PDA medium; cultured at 27° C.
# Method: A predetermined amount of Compound (1) was dissolved in dimethyl sulfoxide, and the resulting solution was added to a potato dextrose agar medium (PDA medium) so as to have a final concentration of predetermined concentration. Separately, an agar piece containing bacteria cut out from the bacterial flora peripheral part of Pythium debaryanum pre-cultured in an additive-free PDA medium was inoculated on the PDA medium containing Compound (1), and cultured at 27° C., and then the mycelium growth state was observed.
structure (smiles),measurement,setting,value
"C#CCN1C(=O)COc2cc(F)c(N3C(=O)C4CC=CCC4C3=O)cc21 (stereo not shown) [Compound (1), N-[7-fluoro-3,4-dihydro-3-oxo-4-(2-propynyl)-2H-1,4-benzoxazin-6-yl]cyclohex-4-ene-1,2-dicarboxamide]",inhibition at 500 ppm,"Pythium zingiberis [1]; 24 h, culture temperature 27° C., observation Day 1, read-out: Mycelium growth inhibition rate (%)",53%
same,inhibition at 500 ppm,"Pythium zingiberis [1]; 96 h, culture temperature 12° C., observation Day 4, read-out: Mycelium growth inhibition rate (%)",100%
same,inhibition at 500 ppm,Pythium zingiberis [2],50%
same,effect of controlling Pythium debaryanum (mycelium growth state observed),Pythium debaryanum,has an effect of controlling Pythium debaryanum
